In patent US6218378A, “Anti-tumor agents comprising pyridyl-substituted metal-diphosphine complex” (priority 1994, dated 2001):
Several values for one entry are separate records, joined by “and”; a condition that tells them apart may be missing. Identical values can stand only once. Like-named read-outs stand apart in the source and are kept apart here.

Legend:
[1] = system: four human tumour cell lines (MM96, HeLa, CI-80-13S, HeLa-S1a); experiment: cytotoxicity against four human tumour cell lines in vitro (FIGS. 3 and 4); type: cell-based; conditions: for cytotoxicity (FIGS. 3 and 4): all four cell lines; for selectivity against the cisplatin-resistant lines: compared with formula (I) or (V), R=4-pyridyl and 3-pyridyl
Text: (§1) The origins of the human melanoma cell line MM96 has been described in Whitehead et al., 1973, Pigment Cell 1 383-389. The cell line JAM is described in Ward et al., 1987, Cancer Res. 47 2662-2667. The origin of the ovarian tumour line CI-80-13S has been described in Bertoncello et al., 1985, Aust. J. Exp. Biol. Med. Sci. 63 241-243. The origin of the cervical carcinoma cell line HeLa has been described in Maynard et al., 1986, Cancer Res. 46 5009-5093. The subclone HeLa-S1a was derived by stably transfecting HeLa with PAI-2 cDNA described in Schleuning et al., 1987, Mol. Cell. Biol. 7 4564-4567 in the sense orientation under the control of the cyto-megalovirus (CMV) promoter. The stably infected subclone was isolated following G418 selection and expression of the PAI-2 transgene characterised by immunoblot analysis and quantitated by ELISA. All of these cell lines have been used before for carrying out cell survival assays referred to in FIGS. 1-4. Cells were cultured at 37° in 5% CO2 /air in Roswell Park Memorial Institute medium 1640 containing 5% foetal calf serum, 100 μg/ml streptomycin, 100 IU/ml penicillin, 1 mM pyruvate, 50 μM nicotinamide and 3 mM HEPES.
(§2) Cells were seeded in microtitre plates (lowest number for fastest growing cells: 1000 HeLa, 2000 MM96, […] CI-80-13S cells per 6 mm well in 100 μl), normally but not necessarily allowed to attach overnight, then 5 dilutions of the drug were added to duplicate wells. After an overnight incubation to equilibrate the pH, the lids were quickly taped around the edge to prevent evaporation. The plates were incubated for 5-7 days, until the controls were nearly confluent. Cell growth/morphology was scored at each dose visually (inverted microscope). The medium was then replaced by 50 μl fresh medium containing 2 u/Ci/ml [methyl-3H]-thymidine (5 Ci/mmol; Radiochemical Centre, Amersham, Bucks., U.K.) and incubated for 2-4 hr. The cells were washed with PBS (0.1 M NaCl, 50 mM phosphate, pH 7.2), detached with 100 μl of PBS containing 0.2 mg/ml trypsin and 10 mM EDTA, and washed onto a glass fibre GF/a filter mat with water using a cell harvester. Later, wells were checked under the microscope to ensure complete detachment and washout. Radioactivity was determined in an LKB Beta Plate counter and the results plotted as log % control cpm versus dose. The ID50 (dose required to give 50% survival) was interpolated from this survival curve.
We have tested the following compounds of formula (III) against the four human tumour cell lines described above, i.e.: […]

CI-80-13S = experiment: cell survival after drug treatment ([methyl-3H]-thymidine); type: cell-based, human; conditions: for IC50: CI-80-13S, mean ± SD or individual values when n<3, 5-7 days
Text: (§3) In FIGS. 1-4 and Table 1, reference is made to the cell lines HeLa, HeLa-S1a, JAM, CI-80-13S and MM96.
as §1, §2

HeLa-S1a = experiment: as above; type: cell-based, human; conditions: for IC50: HeLa-S1a, mean ± SD or individual values when n<3, 5-7 days
Text: as §3, §1, §2

HeLa = experiment: as above; type: cell-based, human; conditions: for IC50: HeLa, mean ± SD or individual values when n<3, 5-7 days
Text: as §3, §1, §2

JAM = experiment: as above; type: cell-based, human; conditions: mean ± SD or individual values when n<3, 5-7 days
Text: as §3, §1, §2

MM96 = experiment: as above; type: cell-based, human; conditions: for IC50: MM96L, mean ± SD or individual values when n<3, 5-7 days
Text: as §3, §1, §2

41M-cisR = experiment: cytotoxicity assay, sulforhodamine B; type: cell-based, human; conditions: 96 hrs, mean ± SD or individual values when n<3
Procedure: (§4) In Table 2, reference is made to cell lines 41M, 41M-cisR, SKOV-3, CH1 and CH1-cisR.
(§5) J. Cancer 69 1-7. The characteristics of the cell line pairs CH1/CH1 cisR, 41M/41McisR and 41M/SKOV3 are described in Table 3.
(§6) The cytotoxicity assay used sulforhodamine B which stains the basic amino acids. Cells (5000 or 2500 for SKOV-3) were seeded into 96 well microtitre plates (Linbro, Flow Laboratories Inc., USA) in 0.1 ml of medium. After an overnight incubation, the metal phosphine compounds were dissolved in 0.9% NaCl or ethanol and diluted with medium, were added at concentrations ranging from 0.005 to 50 μM to quadruplicate wells. After 96 hrs incubation, the medium was removed and cells were fixed in 0.2 ml of cold 10% (w/v) trichloroacetic acid (May & Baker Ltd., Dagenham, England) for 30 mins at 4° C. The plates were washed five times with tap water. Then 0.1 ml of 0.4% (w/v) sulforhodamine B (Sigma Chemical Co., St. Louis, USA) dissolved in 1% acetic acid (Ajax Chemicals, Australia) was added to the wells and left to stand at room temperature for 15 mins. The plates were then washed five times with 1% acetic acid and left to dry overnight. The next morning, 0.1 ml of 10 mM Tris buffer (Sigma Chemical Co., St. Louis, USA) was then added to each plate to solubilise the dye. Absorbance was read at a wavelength of 570 nm using a 96 well plate reader Dynatech MR 5000 plate reader. Absorbance of treatment cells was expressed as a percentage of positive (drug-free) controls. The results were plotted as percentage growth versus drug concentration.

41M = experiment: cytotoxicity assay, sulforhodamine B; type: cell-based, human; conditions: 96 hrs, mean ± SD or individual values when n<3
Procedure: as §4, §5, §6

SKOV-3 = experiment: cytotoxicity assay, sulforhodamine B; type: cell-based, human; conditions: 96 hrs, mean ± SD or individual values when n<3
Procedure: as §4, §5, §6

[2] = system: 41M, 41M-cisR, SKOV-3, CH1, CH1-cisR; experiment: growth inhibition of cisplatin-sensitive and -resistant ovarian cancer cell lines (Table 2, FIG. 5); type: cell-based, human
Text: (§7) The sensitive CH1 cell line was established from a patient with drug-sensitive disease and its resistant variant (CH1-cisR) was generated by prolonged in vitro exposure to cisplatin during which it acquired more efficient DNA repair as described in Kelland et al., 1992, Cancer Research 52 3857-3864. The sensitive 41M cell line was also established from a patient with a sensitive tumor and its resistant variant (41M-cisR) was generated in the same way but acquired decreased uptake across the cell membrane (Kelland et al., 1992, supra). The intrinsically-resistant SKOV-3 ovarian carcinoma cell line has high glutathione levels as described in Mistry et al., 1991, Brit. J. Cancer 64 215-220 and reduced levels of bi-functional cisplatin-DNA lesions as described in McKeage et al., 1994, Brit. J. Cancer 69 1-7. The characteristics of the cell line pairs CH1/CH1 cisR, 41M/41McisR and 41M/SKOV3 are described in Table 3.
as §6, with “concentration. The drug concentration resulting in a 50% growth inhibition was termed the IC50. The passage numbers used for the cytotoxicity assay from each cell line were, CH1 passages 50-58, CH1 cis-R passages 77-83, 41M passages 50-63, 41M cisR 81-92 and SKOV-3 passages 106-128.” for “concentration.”

[3] = system: CI-80-13S vs JAM; HeLa-S1a vs HeLa; experiment: relative cytotoxic potency in cisplatin-resistant and non-resistant cells (Table 1); type: cell-based, human; conditions: CI80-13-S vs JAM; HeLaS1a vs HeLa
Text: as §1, with “All of these cell lines have been used before for carrying out cell survival assays referred to in FIGS. 1-4. Cells were cultured at 37° in 5% CO2 /air in Roswell Park Memorial Institute medium 1640 containing 5% foetal calf serum, 100 μg/ml streptomycin, 100 IU/ml penicillin, 1 mM pyruvate, 50 μM nicotinamide and 3 mM HEPES.” left out
Cells were seeded in microtitre plates (lowest number for fastest growing cells: 1000 HeLa, 2000 MM96, […] CI-80-13S cells per 6 mm well in 100 μl), normally but not necessarily allowed to attach overnight, then 5 dilutions of the drug were added to duplicate wells. […] Cell growth/morphology was scored at each dose visually (inverted microscope). […] Radioactivity was determined in an LKB Beta Plate counter and the results plotted as log % control cpm versus dose. […]

CH1-cisR = experiment: cytotoxicity assay, sulforhodamine B; type: cell-based, human; conditions: 96 hrs, mean ± SD or individual values when n<3
Procedure: as §4, §5, §6

CH1 = experiment: cytotoxicity assay, sulforhodamine B; type: cell-based, human; conditions: 96 hrs, mean ± SD or individual values when n<3
Procedure: as §4, §5, §6

human tumour cell lines = experiment: selectivity of cytotoxicity over all cell lines evaluated (Tables 1 and 2); type: cell-based
Text: as §1, §2, §7
The cytotoxicity assay used sulforhodamine B which stains the basic amino acids. Cells (5000 or 2500 for SKOV-3) were seeded into 96 well microtitre plates (Linbro, Flow Laboratories Inc., USA) in 0.1 ml of medium. After an overnight incubation, the metal phosphine compounds were dissolved in 0.9% NaCl or ethanol and diluted with medium, were added at concentrations ranging from 0.005 to 50 μM to quadruplicate wells. After 96 hrs incubation, the medium was removed and cells were fixed in 0.2 ml of cold 10% (w/v) trichloroacetic acid (May & Baker Ltd., Dagenham, England) for 30 mins at 4° C. The plates were washed five times with tap water. […]

cisplatin cytotoxicity [4] = conditions: in vitro; cited from earlier work
cisplatin cytotoxicity [5] = conditions: in vivo; cited from earlier work

O=[N+]([O-])[O-].O=[N+]([O-])[O-].[Ag+].[Ag+].c1ccc(P(CCP(c2ccccn2)c2ccccn2)c2ccccn2)nc1.c1ccc(P(CCP(c2ccccn2)c2ccccn2)c2ccccn2)nc1.c1ccc(P(CCP(c2ccccn2)c2ccccn2)c2ccccn2)nc1.c1ccc(P(CCP(c2ccccn2)c2ccccn2)c2ccccn2)nc1 [[Ag2 (d2pype)4](NO3)2]
cytotoxicity (FIGS. 3 and 4) [1]: cytotoxic to all four cell lines | selectivity against the cisplatin-resistant lines [1]: do not show the same selectivity

[Cl-].[Cl-].c1ccc([P+]2(c3ccccn3)CC[P+](c3ccccn3)(c3ccccn3)[Au-3]23[P+](c2ccccn2)(c2ccccn2)CC[P+](c2ccccn2)(c2ccccn2)[Au-3]2([P+](c4ccccn4)(c4ccccn4)CC[P+]2(c2ccccn2)c2ccccn2)[P+](c2ccccn2)(c2ccccn2)CC[P+]3(c2ccccn2)c2ccccn2)nc1 [[Au2 (d2pype)4]Cl2]
IC50 (CI-80-13S): 0.06 ± 0.03 µM | IC50 (HeLa-S1a): 0.06 µM | IC50 (HeLa): 0.24 ± 0.1 µM | IC50 (JAM): 0.1 µM and 0.39 µM | IC50 (MM96): 0.09 µM | IC50 (41M-cisR): 0.6 µM | IC50 (41M): 0.7 µM | IC50 (SKOV-3): 1.1 µM | cytotoxicity (FIGS. 3 and 4) [1]: cytotoxic to all four cell lines | selectivity against the cisplatin-resistant lines [1]: do not show the same selectivity | selectivity and cytotoxicity in ovarian cancer cell-lines (FIG. 5) [2]: cytotoxic to the 41M pair and the resistant SKOV-3 | sensitivity of cisplatin-resistant cell lines versus non-resistant cells [3]: more sensitive

[Au+].[Au+].[Cl-].[Cl-].c1cncc(P(CCP(c2cccnc2)c2cccnc2)c2cccnc2)c1.c1cncc(P(CCP(c2cccnc2)c2cccnc2)c2cccnc2)c1 [[Au2 (d3pype)2 Cl2]]
cytotoxicity (FIGS. 1 and 2) (CI-80-13S; CI-80-13S ovarian in vitro): selectively cytotoxic | IC50 (CI-80-13S): 0.4 µM | cytotoxicity (FIGS. 1 and 2) (HeLa-S1a; HeLa-S1a in vitro): selectively cytotoxic | IC50 (HeLa-S1a): 0.4 µM | cytotoxicity (FIGS. 1 and 2) (HeLa; HeLa cervical carcinoma in vitro): inactive | IC50 (HeLa): 38 µM | IC50 (MM96): 56 µM | cytotoxicity (FIGS. 1 and 2) (MM96; MM96 melanoma in vitro): inactive | IC50 (41M-cisR): 47 µM | IC50 (41M): 70 ± 12 µM | IC50 (CH1-cisR): 0.5 ± 0.1 µM | IC50 (CH1): 0.9 ± 0.4 µM | IC50 (SKOV-3): 71 ± 12 µM | sensitivity of cisplatin resistant cells versus non-resistant cells ([2]; 41M/41M-cisR and CH1/CH1-cisR pairs): consistently more sensitive

[Au+].[Cl-].c1ccc(P(CCP(c2ccccc2)c2ccccn2)c2ccccn2)cc1.c1ccc(P(CCP(c2ccccc2)c2ccccn2)c2ccccn2)cc1 (stereo not drawn) [[Au(2-pyppe)2]Cl]
IC50 (41M-cisR): 0.1 µM | IC50 (41M): 0.1 µM | IC50 (SKOV-3): 0.2 µM | number of cell lines against which cytotoxic (human tumour cell lines): cytotoxic to all the cell lines evaluated | degree of selectivity (human tumour cell lines; Tables 1 and 2): the least selectivity | selectivity and cytotoxicity in ovarian cancer cell-lines (FIG. 5) ([2]; 96h incubation): cytotoxic to the 41M pair and the resistant SKOV-3

Cl.c1cncc([P+]2(c3cccnc3)CC[P+](c3cccnc3)(c3cccnc3)[Au-3]23[P+](c2cccnc2)(c2cccnc2)CC[P+]3(c2cccnc2)c2cccnc2)c1 [[Au(d3pype)2]Cl]
IC50 (41M-cisR): 11 µM | IC50 (41M): > 25 µM | IC50 (CH1-cisR): 10 µM | IC50 (CH1): 1.5 µM | IC50 (SKOV-3): > 25 µM

Cl.c1cncc([P+]2(c3cccnc3)CC[P+](c3cccnc3)(c3cccnc3)[Cu-3]23[P+](c2cccnc2)(c2cccnc2)CC[P+]3(c2cccnc2)c2cccnc2)c1 [[Cu(d3pype)2]Cl]
IC50 (41M-cisR): 30 µM | IC50 (41M): > 50 µM | IC50 (CH1): 3 µM | IC50 (SKOV-3): > 50 µM

Cc1cc(N)c2ccccc2[n+]1CCCCCCCCCC[n+]1c(C)cc(N)c2ccccc21 [delqualinium]
enhancement of cisplatin cytotoxicity (cisplatin cytotoxicity [4]): enhance cisplatin cytotoxicity | enhancement of cisplatin cytotoxicity (cisplatin cytotoxicity [5]): enhance cisplatin cytotoxicity
